Measured values reported in the supplement of paper PMC10307832.

Experiments:
Assay in all cases: relative viability (nuclei count vs DMSO), 5 days (fraction); higher = more cells survive
AZ505 + Navitoclax = compound: C1CCC(CC1)N(CCNCCC2=C3C(=C(C=C2)O)NC(=O)CO3)C(=O)CCNCCC4=CC(=C(C=C4)Cl)Cl [AZ505] + CC1(C)CCC(c2ccc(Cl)cc2)=C(CN2CCN(c3ccc(C(=O)NS(=O)(=O)c4ccc(N[C@H](CCN5CCOCC5)CSc5ccccc5)c(S(=O)(=O)C(F)(F)F)c4)cc3)CC2)C1 [Navitoclax] (partner 0.5 µM)
Summary of the method: (§1)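 Values are medians from duplicate plates. Each reflects relative viability, defined as the nuclei count of treated wells over that of vehicle wells. Lung cancer cell lines in 1536-well plates were pin-tool dosed one day after seeding with one drug alone or with a fixed anchor-drug dose plus five library-drug doses (not always all listed) in √10 steps, then fixed, stained and imaged at 4× after 5 days.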

Dactolisib = compound: Cn1c(=O)n(-c2ccc(C(C)(C)C#N)cc2)c2c3cc(-c4cnc5ccccc5c4)ccc3ncc21 [Dactolisib]
Summary of the method: (§2)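 A plate was accepted only when its control CV was below 25% and the cells had doubled at least once. Viability is defined from nuclear counts as treated wells divided by vehicle wells, with the median taken across plates. That median covers lung cancer cell lines grown in 1536-well plates, dosed by pinning at five √10-spaced library-drug concentrations, and counted in MetaXpress from 4× Hoechst images after 5 days.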

AZ505 = compound: C1CCC(CC1)N(CCNCCC2=C3C(=C(C=C2)O)NC(=O)CO3)C(=O)CCNCCC4=CC(=C(C=C4)Cl)Cl [AZ505]
Summary of the method: as §2

AZ505 + Foretinib = compound: C1CCC(CC1)N(CCNCCC2=C3C(=C(C=C2)O)NC(=O)CO3)C(=O)CCNCCC4=CC(=C(C=C4)Cl)Cl [AZ505] + COc1cc2c(Oc3ccc(NC(=O)C4(C(=O)Nc5ccc(F)cc5)CC4)cc3F)ccnc2cc1OCCCN1CCOCC1 [Foretinib] (partner 0.25 µM)
Summary of the method: as §1

Cell Line | relative viability (AZ505 + Navitoclax; first compound 0.08 µM) | relative viability (AZ505 + Navitoclax; first compound 0.253 µM) | relative viability (AZ505 + Navitoclax; first compound 0.8 µM) | relative viability (AZ505 + Navitoclax; first compound 2.53 µM) | relative viability (AZ505 + Navitoclax; first compound 8 µM) | relative viability (Dactolisib; 0.002 µM) | relative viability (Dactolisib; 0.006325 µM) | relative viability (Dactolisib; 0.02 µM) | relative viability (Dactolisib; 0.06325 µM) | relative viability (Dactolisib; 0.2 µM) | relative viability (AZ505; 0.08 µM) | relative viability (AZ505; 0.253 µM) | relative viability (AZ505; 0.8 µM) | relative viability (AZ505; 2.53 µM) | relative viability (AZ505; 8 µM) | relative viability (AZ505 + Foretinib; first compound 0.08 µM) | relative viability (AZ505 + Foretinib; first compound 0.253 µM) | relative viability (AZ505 + Foretinib; first compound 0.8 µM) | relative viability (AZ505 + Foretinib; first compound 2.53 µM) | relative viability (AZ505 + Foretinib; first compound 8 µM)
HCC-44 | 1 | 0.963 | 0.927 | 1.01 | 0.939 | 0.979 | 1.01 | 1.03 | 0.688 | 0.929 | 0.951 | 0.945 | 0.934 | 1.01 | 1.02 |  |  |  |  | 
HCC-827 | 1.03 | 0.966 | 0.967 | 0.963 | 0.98 | 1.06 | 1.05 | 0.955 | 1.07 | 1.03 | 0.992 | 1.03 | 0.982 | 1.02 | 1.08 | 0.891 | 1.08 | 1.02 | 1.08 | 1.09
NCI-H1623 |  |  |  |  |  | 1.14 | 0.968 | 0.918 | 0.531 | 0.402 | 0.894 | 1.03 | 0.984 | 0.937 | 1.04 | 0.76 | 0.781 | 0.834 | 0.79 | 0.99
NCI-H2347 | 0.434 | 0.549 | 0.564 | 0.482 | 0.631 | 1.27 | 0.971 | 0.958 | 0.771 | 0.517 | 0.643 | 0.759 | 0.738 | 0.589 | 0.833 |  | 0.743 | 0.719 |  | 1.04
PC-14 | 0.999 | 1.07 | 0.974 | 0.95 | 0.997 | 1.05 | 1.01 | 0.836 | 0.33 | 0.182 | 0.915 | 0.96 | 0.947 | 0.955 | 1.04 | 0.922 | 0.927 | 1.03 | 1.01 | 0.937
NCI-H1651 | 1.06 | 1.07 | 1.03 | 1.12 | 1.01 | 1.01 | 1 | 0.872 | 0.555 | 0.434 | 0.927 | 0.984 | 0.977 | 0.938 | 1.04 | 0.771 | 0.843 | 0.804 | 0.603 | 0.84
HARA | 1.14 | 1.12 | 1.12 | 1.07 | 1.08 | 1.08 | 0.982 | 0.928 | 0.601 | 0.369 | 0.792 | 0.758 | 0.915 | 0.873 | 0.847 | 0.85 | 0.963 | 0.766 | 0.709 | 0.633
NCI-H1563 |  |  |  |  |  | 1 | 0.928 | 0.885 | 0.605 | 0.562 | 0.998 | 1.04 | 0.968 | 0.93 | 0.939 | 0.928 | 0.965 | 0.902 | 0.866 | 0.93
ABC-1 |  |  |  |  |  | 0.954 | 0.921 | 0.868 | 0.719 | 0.458 | 0.899 | 0.963 | 0.975 | 0.985 | 1.05 | 0.856 | 1.21 | 0.976 | 1.02 | 0.863
NCI-H522 |  |  |  |  |  | 0.971 | 0.932 | 0.967 | 0.895 | 0.568 | 0.922 | 0.961 | 0.981 | 1.05 | 1 |  |  |  |  | 
SW 900 |  |  |  |  |  | 0.913 | 0.769 | 0.714 | 0.329 | 0.346 | 0.857 | 0.856 | 0.818 | 0.963 | 0.97 | 0.85 | 0.972 | 0.968 | 0.927 | 0.616
NCI-H1792 | 0.61 | 0.637 | 0.592 | 0.653 | 0.719 | 1.04 | 0.635 | 0.551 | 0.317 | 0.175 | 0.757 |  | 0.803 | 0.947 | 0.945 |  |  |  |  | 
LCLC-103H |  |  |  |  |  | 1.03 | 0.95 | 0.964 | 0.785 | 0.624 | 0.989 | 0.903 | 0.925 | 1.02 | 0.896 | 0.734 | 0.857 | 0.729 | 0.848 | 0.715
NCI-H358 |  |  |  |  |  | 0.914 | 0.895 | 0.834 | 0.413 | 0.272 | 0.785 | 0.829 | 0.812 | 0.755 | 0.925 | 0.573 | 0.732 | 0.629 | 0.549 | 0.59
NCI-H1648 |  |  |  |  |  | 0.842 | 0.869 | 1.01 | 0.451 | 0.319 | 0.734 | 1.01 | 0.883 | 1.01 | 1.15 |  |  |  |  | 
NCI-H2342 |  |  |  |  |  | 0.997 | 0.999 | 0.862 | 0.843 | 0.591 | 1.03 | 1.08 | 1.17 | 1.07 | 1.08 | 1.07 | 1.02 | 1.02 | 1.14 | 1.14
NCI-H650 |  |  |  |  |  | 1.07 | 0.937 | 0.892 | 0.747 | 0.412 | 1.01 | 0.887 | 0.948 | 1.1 | 1.01 | 1.01 | 1.14 | 1.06 | 1.08 | 1.01
NCI-H661 |  |  |  |  |  | 1.08 | 1.03 | 0.953 | 0.482 | 0.432 | 0.951 | 1.01 | 0.963 | 0.963 | 1 | 1 | 1.02 | 0.981 | 0.984 | 0.999
